Experimental data as given in patent US12486253B2, “Therapeutics for the degradation of mutant BRAF” (C4 THERAPEUTICS, INC., priority 2021, dated 2025).

Experiments:
GSPT1 = target: T1, GSPT1 (Homo sapiens, UniProt P15170); test: GSPT1 protein levels after treatment; type: cell-based; settings: various concentrations
T1 construct: endogenously expressing GSPT1 with HiBiT fusion tag via CRISPR; endogenous in cells; host or cells: HEK293T.114

p61 splice variant = target: T2, p61 splice variant (Homo sapiens, UniProt P15056+Q96SW2, DEL169-380/V600E); test: Western blot of engineered HEK-293T cells expressing the p61 splice variant; type: cell-based; settings: lentivirus expression
T2 construct: host or cells: HEK-293T, lentiviral expression

[1] = target: T3, BRAF class III mutation G466V (Homo sapiens, UniProt P15056, G466V); test: Western blot of H1666 cells endogenously expressing G466V; type: cell-based; settings: 24 hours
T3 construct: cells endogenously expressing the Class III mutation G466V; host or cells: H1666

A375 cells = test: CellTiter-Glo cell growth inhibition, A375 cells; type: cell-based; settings: Homo sapiens, A-375, 72 hr, mean of at least n = 3
Description: A375 cell viability was determined based on quantification of ATP using CellTiter-Glo® 2.0 luminescent Assay kit, which signals the presence of metabolically-active cells. Briefly, test compound was added to 384-well plates at a top concentration of 10 μM with 14 points, half log titration in duplicates. A375 cells were seeded into the 384-well plates in DMEM medium containing 10% FBS at a cell density of 250 cells per well. Cells treated in the absence of the test compound were the negative control, normalized to 100% viability, and cells treated in the absence of CellTiter-Glo® 2.0 were the positive control, normalized to 0% viability. A375 cells were incubated at 37° C. with 5% CO2 for 72 hr. CellTiter-Glo reagent was then added to the cells and Luminescence was acquired on EnVision™ Multilabel Reader (PerkinElmer, Santa Clara, CA, USA).

[2] = target: BRAF V600E, test compound and CRBN ternary complex (Homo sapiens, UniProt P15056+Q96SW2, V600E); test: AlphaLISA ternary complex formation assay; type: binding; settings: GST-BRAF V600E 16 nM, His-CRBN 64 nM
Description: Formation of the ternary complex between BRAF V600E, test compound and CRBN was quantified using AlphaLISA® assay. GST-tagged BRAF V600E and His-tagged CRBN were labeled with a donor/acceptor AlphaLISA® pair, and complex formation was monitored via a change in the Alpha-signal. Signal from the control wells was used as a normalization control.
Characterization of the ternary complex formation between GST-BRAF V600E, Compound 157 and his-CRBN was carried out using an AlphaLISA® assay. Compounds were dispensed from serially diluted DMSO stock in low dead volume plates into gray 384-well AlphaPlates using acoustic technology to 1% of total reaction volume. Compounds were arranged vertically in rows A through P. Concentration series were horizontal: columns 1-11, and then duplicates in columns 12-22.
Excitation of the donor beads results in generation of singlet oxygen molecules. […]
A 10 μL mixture containing 16 nM of BRAF V600E and 64 nM of CRBN in 50 mM HEPES (pH 7.4), 200 mM NaCl, 1 mM TCEP, 0.05% Pluronic Acid, 0.1% BSA was added to the wells containing test compounds (columns 1-22) and the negative control wells (column 23). […] Plates were then read on an Envision plate reader with an appropriate AlphaLISA® filter set.

T3 sequence (P15056 2-766 G466V): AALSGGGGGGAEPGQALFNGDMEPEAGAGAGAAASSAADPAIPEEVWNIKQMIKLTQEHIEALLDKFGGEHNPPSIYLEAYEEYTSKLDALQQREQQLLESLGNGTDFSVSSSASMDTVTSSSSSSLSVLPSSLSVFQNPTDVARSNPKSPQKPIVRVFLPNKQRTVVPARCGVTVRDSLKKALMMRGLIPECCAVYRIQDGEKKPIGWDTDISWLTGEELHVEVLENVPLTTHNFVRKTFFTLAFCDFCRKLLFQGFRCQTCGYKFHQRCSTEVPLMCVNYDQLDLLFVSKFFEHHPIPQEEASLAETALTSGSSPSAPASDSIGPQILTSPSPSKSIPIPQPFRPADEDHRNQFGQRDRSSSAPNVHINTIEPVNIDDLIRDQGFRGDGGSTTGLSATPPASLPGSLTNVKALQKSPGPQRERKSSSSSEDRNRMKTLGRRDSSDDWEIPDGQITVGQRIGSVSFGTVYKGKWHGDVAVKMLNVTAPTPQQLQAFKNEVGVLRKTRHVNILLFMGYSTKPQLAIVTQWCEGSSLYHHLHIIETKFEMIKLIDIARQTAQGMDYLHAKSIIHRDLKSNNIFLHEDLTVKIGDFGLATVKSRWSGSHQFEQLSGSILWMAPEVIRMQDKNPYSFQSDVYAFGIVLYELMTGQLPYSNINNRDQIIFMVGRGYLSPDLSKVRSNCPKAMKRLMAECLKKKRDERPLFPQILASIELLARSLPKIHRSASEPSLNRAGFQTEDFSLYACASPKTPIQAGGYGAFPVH
T2 sequence (P15056 with tags, fused parts or gaps DEL169-380/V600E): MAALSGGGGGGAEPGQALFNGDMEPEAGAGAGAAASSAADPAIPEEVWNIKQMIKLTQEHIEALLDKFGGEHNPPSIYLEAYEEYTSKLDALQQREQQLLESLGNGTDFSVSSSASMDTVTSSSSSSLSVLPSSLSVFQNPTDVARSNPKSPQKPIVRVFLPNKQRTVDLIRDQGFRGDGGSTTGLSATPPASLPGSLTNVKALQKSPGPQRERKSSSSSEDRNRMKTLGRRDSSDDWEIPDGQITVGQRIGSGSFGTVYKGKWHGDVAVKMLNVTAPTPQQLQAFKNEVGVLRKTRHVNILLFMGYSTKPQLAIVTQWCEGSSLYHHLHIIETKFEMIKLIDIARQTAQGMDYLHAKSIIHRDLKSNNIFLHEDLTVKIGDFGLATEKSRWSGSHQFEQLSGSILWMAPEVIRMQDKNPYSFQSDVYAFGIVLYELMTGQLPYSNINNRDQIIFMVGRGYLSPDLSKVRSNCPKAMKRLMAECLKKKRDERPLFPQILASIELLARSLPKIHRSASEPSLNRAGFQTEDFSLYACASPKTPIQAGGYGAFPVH
T2 sequence (Q96SW2 whole entry, stated change not applied, canonical isoform): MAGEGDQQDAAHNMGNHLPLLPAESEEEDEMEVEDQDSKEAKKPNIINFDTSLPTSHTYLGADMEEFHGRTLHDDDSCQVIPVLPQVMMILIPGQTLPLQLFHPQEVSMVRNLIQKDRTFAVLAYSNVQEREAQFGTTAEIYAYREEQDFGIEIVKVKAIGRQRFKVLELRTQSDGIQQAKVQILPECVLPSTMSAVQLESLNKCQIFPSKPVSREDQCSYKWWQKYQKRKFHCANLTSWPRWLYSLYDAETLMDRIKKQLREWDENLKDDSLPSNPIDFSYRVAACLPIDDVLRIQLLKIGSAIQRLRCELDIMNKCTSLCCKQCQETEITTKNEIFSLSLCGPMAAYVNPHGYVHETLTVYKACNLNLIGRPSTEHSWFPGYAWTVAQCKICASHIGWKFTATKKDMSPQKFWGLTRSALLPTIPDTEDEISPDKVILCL
T2 sequence (Q16531 whole entry partner, canonical isoform): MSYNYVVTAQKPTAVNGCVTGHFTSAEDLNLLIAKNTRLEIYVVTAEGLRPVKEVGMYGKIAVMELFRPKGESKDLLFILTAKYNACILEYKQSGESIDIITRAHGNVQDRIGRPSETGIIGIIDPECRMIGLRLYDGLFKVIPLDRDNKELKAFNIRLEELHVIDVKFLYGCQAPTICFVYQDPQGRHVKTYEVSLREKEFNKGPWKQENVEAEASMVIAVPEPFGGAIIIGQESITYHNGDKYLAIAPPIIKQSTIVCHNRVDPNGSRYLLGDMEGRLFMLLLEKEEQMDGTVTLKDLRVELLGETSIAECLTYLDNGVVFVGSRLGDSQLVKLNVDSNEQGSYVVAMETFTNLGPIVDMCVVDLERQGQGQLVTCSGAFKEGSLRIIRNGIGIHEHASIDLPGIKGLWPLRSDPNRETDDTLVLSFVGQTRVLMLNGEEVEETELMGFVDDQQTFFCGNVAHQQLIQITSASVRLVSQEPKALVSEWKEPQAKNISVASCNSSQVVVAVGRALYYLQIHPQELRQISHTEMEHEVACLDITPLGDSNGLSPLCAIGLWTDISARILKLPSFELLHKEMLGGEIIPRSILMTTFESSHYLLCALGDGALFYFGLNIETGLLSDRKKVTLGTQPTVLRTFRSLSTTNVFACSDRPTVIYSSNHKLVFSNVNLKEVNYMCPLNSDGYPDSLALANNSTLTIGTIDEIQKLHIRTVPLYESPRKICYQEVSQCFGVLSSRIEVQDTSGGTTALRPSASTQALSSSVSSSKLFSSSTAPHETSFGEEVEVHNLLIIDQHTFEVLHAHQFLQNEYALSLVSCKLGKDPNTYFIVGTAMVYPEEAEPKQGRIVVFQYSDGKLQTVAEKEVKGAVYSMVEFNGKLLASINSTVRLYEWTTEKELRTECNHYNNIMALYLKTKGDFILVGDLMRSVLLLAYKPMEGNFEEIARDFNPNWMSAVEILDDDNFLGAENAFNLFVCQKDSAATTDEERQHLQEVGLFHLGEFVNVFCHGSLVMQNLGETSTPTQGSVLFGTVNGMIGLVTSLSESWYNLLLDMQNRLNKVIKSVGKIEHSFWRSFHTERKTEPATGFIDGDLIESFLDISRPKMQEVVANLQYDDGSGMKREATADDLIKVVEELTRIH
T1 sequence (P15170 whole entry, the tested form may be a part): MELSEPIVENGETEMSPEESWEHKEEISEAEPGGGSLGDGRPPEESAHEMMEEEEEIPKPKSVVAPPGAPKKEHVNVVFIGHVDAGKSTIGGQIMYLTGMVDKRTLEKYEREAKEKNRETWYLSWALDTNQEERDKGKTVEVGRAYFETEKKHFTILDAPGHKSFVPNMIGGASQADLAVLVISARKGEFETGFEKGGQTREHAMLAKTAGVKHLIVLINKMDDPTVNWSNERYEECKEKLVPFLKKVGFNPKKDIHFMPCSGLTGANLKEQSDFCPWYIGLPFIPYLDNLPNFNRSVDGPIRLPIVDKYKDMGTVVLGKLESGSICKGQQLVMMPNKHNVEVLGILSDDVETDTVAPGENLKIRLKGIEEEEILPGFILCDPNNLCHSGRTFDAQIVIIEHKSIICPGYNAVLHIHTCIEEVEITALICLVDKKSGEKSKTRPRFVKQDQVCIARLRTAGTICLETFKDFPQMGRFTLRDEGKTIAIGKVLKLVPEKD
Chain of BRAF V600E, test compound and CRBN ternary complex (P15056 whole entry V600E): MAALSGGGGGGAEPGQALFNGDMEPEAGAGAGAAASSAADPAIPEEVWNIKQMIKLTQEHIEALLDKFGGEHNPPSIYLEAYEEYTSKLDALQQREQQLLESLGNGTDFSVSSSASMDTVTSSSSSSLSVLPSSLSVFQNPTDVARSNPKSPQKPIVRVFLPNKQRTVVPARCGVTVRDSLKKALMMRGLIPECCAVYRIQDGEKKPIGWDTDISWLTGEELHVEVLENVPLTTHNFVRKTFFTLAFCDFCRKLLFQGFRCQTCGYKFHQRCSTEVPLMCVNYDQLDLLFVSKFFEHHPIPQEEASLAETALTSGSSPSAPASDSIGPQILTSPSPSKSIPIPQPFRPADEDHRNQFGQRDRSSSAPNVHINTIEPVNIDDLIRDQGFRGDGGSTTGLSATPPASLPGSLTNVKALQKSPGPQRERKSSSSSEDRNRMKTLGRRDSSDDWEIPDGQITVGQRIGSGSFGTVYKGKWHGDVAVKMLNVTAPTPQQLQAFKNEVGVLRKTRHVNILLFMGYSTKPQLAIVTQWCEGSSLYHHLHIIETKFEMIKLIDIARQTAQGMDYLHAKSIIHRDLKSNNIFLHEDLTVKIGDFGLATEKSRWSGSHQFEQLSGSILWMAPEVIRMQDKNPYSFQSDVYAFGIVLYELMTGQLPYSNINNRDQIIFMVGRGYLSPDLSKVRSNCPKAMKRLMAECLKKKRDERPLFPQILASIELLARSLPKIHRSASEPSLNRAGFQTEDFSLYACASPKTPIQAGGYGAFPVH
Chain of BRAF V600E, test compound and CRBN ternary complex (Q96SW2 whole entry): as the sequence (Q96SW2 whole entry, stated change not applied, canonical isoform) above

`CCN(C)S(=O)(=O)Nc1ccc(F)c(Oc2ccc3ncn([C@H]4COC5(CCN(C(=O)CC6(O)CCN(c7cc8c(cc7F)c(N7CCC(=O)NC7=O)nn8C)CC6)CC5)C4)c(=O)c3c2)c1C#N` [Compound 157, (3R)-3-[6-[2-cyano-3-[[ethyl(methyl)sulfamoyl]amino]-6-fluorophenoxy]-4-oxoquinazolin-3-yl]-8-[2-[1-[3-(2,4-dioxo-1,3-diazinan-1-yl)-5-fluoro-1-methylindazol-6-yl]-4-hydroxypiperidin-4-yl]acetyl]-1-oxa-8-azaspiro[4.5]decane] was tested, and the GSPT1 protein levels (GSPT1) was “steady”, the “degradation of p61 splice variant” value (p61 splice variant) was “capable of degrading” and the “phosphorylated ERK signal” value [1] was “decrease”. The “reduction in BRAF signal” value ([1]; includes any WT BRAF) was 53%, the GI50 (A375 cells) was 9.3 nM and the “Ternary complex formation (concentration dependence)” value [2] was “characteristic bell-shaped curve”.
